Test results: patent publication US20150148235A1, “HERBICIDE-RESISTANT SUNFLOWER PLANTS WITH MULTIPLE HERBICIDE RESISTANT ALLELES OF AHASL1 AND METHODS OF USE” (NIDERA S.A., priority 2013, published 2015)

System: sunflower lines and hybrids carrying A122T and/or A205V AHASL1 alleles
Assay: Greenhouse whole-plant response to imazapyr doses (height, Phytotoxicity Index, dry biomass), Example 2
Assay type: in vivo, Helianthus annuus
Conditions: 14 DAT
Method: Seeds were sown in Petri dishes and, after germination, plantlets were transplanted to pots of 10 cm of diameter in a potting media consisting of equal parts of vermiculite, soil and sand. Plants were grown in a greenhouse under natural light conditions supplemented with 400 W sodium halide lamps to provide a 16 hr daylength. Day/night temperatures were 25 and 20° C., respectively. At the V2-V4 stage (Schneiter & Miller (1981) Crop Sci. 21:901-903) 10 plants of each genotype were randomly assigned to each treatment consisting of eight imazapyr doses (0, 40, 80, 160, 240, 320, 400 and 480 g ai/ha, corresponding to untreated, 0.5×, 1×, 2×, 3×, 4×, 5× and 6×, respectively), and a zero-time biomass determination. Experiment was arranged as a randomized block design with a full factorial (sunflower line×treatment) arrangement of treatments and 10 replications.
On the day of herbicide application ten plants of each genotype were cut at the cotyledonal node and dried at 60° C. for 48 hrs for zero-time dried weight determination.
The remaining plants were maintained for 14 days after imazapyr treatment (DAT) and their height, Phytotoxicity Index (PI) and above ground dry biomass were determined Height was determined as the distance between the cotyledonal node and the apex of each plant. Above ground biomass data from each line were converted to biomass accumulation after application by subtracting the appropriate average zero-time biomass from each sample. Dry biomass data were converted to percentages of the untreated control plants within each line to allow direct comparisons between groups.

[1] = H1 (A205V hybrid), 0.5x=40 g ai/ha
[2] = H2 (A122T hybrid), 0.5x=40 g ai/ha
[3] = H2 (A122T hybrid), 5x=400 g ai/ha
[4] = H3 (A122T/A205V hybrid), 1x=80 g ai/ha
[5] = H3 (A122T/A205V hybrid), 4x=320 g ai/ha
[6] = H3 (A122T/A205V hybrid), 6x=480 g ai/ha
[7] = H4 (A122T/A205V hybrid), 0.5x=40 g ai/ha
[8] = H4 (A122T/A205V hybrid), 2x=160 g ai/ha
[9] = H4 (A122T/A205V hybrid), 3x=240 g ai/ha

SMILES: CC(C)C1(C)N=C(c2ncccc2C(=O)O)NC1=O (stereo not drawn) [imazapyr]
- Difference between A205V vs A205V/A122T, Phytotoxicity Index (0.5x=40 g ai/ha): −0.50
- Difference between A205V vs A205V/A122T, biomass accumulation (0.5x=40 g ai/ha): −4.33 % of untreated
- Difference between A205V vs A205V/A122T, plant height (0.5x=40 g ai/ha): 0.21 % of untreated
- Difference between A1222T vs A205V/A122T, plant height (0.5x=40 g ai/ha): 0.49 % of untreated
- ifference between A1222T vs A205V/A122T, Phytotoxicity Index (0.5x=40 g ai/ha): −0.21
- ifference between A1222T vs A205V/A122T, biomass accumulation (0.5x=40 g ai/ha): −0.76 % of untreated
- Difference between A205V vs A205V/A122T, Phytotoxicity Index (1x=80 g ai/ha): −0.50
- Difference between A205V vs A205V/A122T, biomass accumulation (1x=80 g ai/ha): −13.45 % of untreated
- Difference between A205V vs A205V/A122T, plant height (1x=80 g ai/ha): 0.89 % of untreated
- Difference between A1222T vs A205V/A122T, plant height (1x=80 g ai/ha): 1.21 % of untreated
- ifference between A1222T vs A205V/A122T, Phytotoxicity Index (1x=80 g ai/ha): −0.21
- ifference between A1222T vs A205V/A122T, biomass accumulation (1x=80 g ai/ha): −2.17 % of untreated
- Difference between A205V vs A205V/A122T, Phytotoxicity Index (2x=160 g ai/ha): 1.66
- Difference between A205V vs A205V/A122T, biomass accumulation (2x=160 g ai/ha): −30.47 % of untreated
- Difference between A205V vs A205V/A122T, plant height (2x=160 g ai/ha): −24.63 % of untreated
- Difference between A1222T vs A205V/A122T, plant height (2x=160 g ai/ha): −0.32 % of untreated
- ifference between A1222T vs A205V/A122T, Phytotoxicity Index (2x=160 g ai/ha): −0.20
- ifference between A1222T vs A205V/A122T, biomass accumulation (2x=160 g ai/ha): −1.07 % of untreated
- Difference between A205V vs A205V/A122T, Phytotoxicity Index (3x=240 g ai/ha): 4.65
- Difference between A205V vs A205V/A122T, biomass accumulation (3x=240 g ai/ha): −41.42 % of untreated
- Difference between A205V vs A205V/A122T, plant height (3x=240 g ai/ha): −46.79 % of untreated
- Difference between A1222T vs A205V/A122T, plant height (3x=240 g ai/ha): −1.22 % of untreated
- ifference between A1222T vs A205V/A122T, Phytotoxicity Index (3x=240 g ai/ha): −0.17
- ifference between A1222T vs A205V/A122T, biomass accumulation (3x=240 g ai/ha): 0.55 % of untreated
- Difference between A205V vs A205V/A122T, Phytotoxicity Index (4x=320 g ai/ha): 6.92
- Difference between A205V vs A205V/A122T, biomass accumulation (4x=320 g ai/ha): −52.87 % of untreated
- Difference between A205V vs A205V/A122T, plant height (4x=320 g ai/ha): −62.01 % of untreated
- Difference between A1222T vs A205V/A122T, plant height (4x=320 g ai/ha): 1.15 % of untreated
- ifference between A1222T vs A205V/A122T, Phytotoxicity Index (4x=320 g ai/ha): 0.00
- ifference between A1222T vs A205V/A122T, biomass accumulation (4x=320 g ai/ha): −0.73 % of untreated
- Difference between A205V vs A205V/A122T, Phytotoxicity Index (5x=400 g ai/ha): 7.59
- Difference between A205V vs A205V/A122T, biomass accumulation (5x=400 g ai/ha): −46.69 % of untreated
- Difference between A205V vs A205V/A122T, plant height (5x=400 g ai/ha): −48.59 % of untreated
- Difference between A1222T vs A205V/A122T, plant height (5x=400 g ai/ha): 9.12 % of untreated
- ifference between A1222T vs A205V/A122T, Phytotoxicity Index (5x=400 g ai/ha): 0.21
- ifference between A1222T vs A205V/A122T, biomass accumulation (5x=400 g ai/ha): −1.14 % of untreated
- Difference between A205V vs A205V/A122T, Phytotoxicity Index (6x=480 g ai/ha): 7.19
- Difference between A205V vs A205V/A122T, biomass accumulation (6x=480 g ai/ha): −41.41 % of untreated
- Difference between A205V vs A205V/A122T, plant height (6x=480 g ai/ha): −31.39 % of untreated
- Difference between A1222T vs A205V/A122T, plant height (6x=480 g ai/ha): 19.49 % of untreated
- ifference between A1222T vs A205V/A122T, Phytotoxicity Index (6x=480 g ai/ha): 0.17
- ifference between A1222T vs A205V/A122T, biomass accumulation (6x=480 g ai/ha): 2.41 % of untreated
- Height reduction (A122T homozygous lines, 0.5x): 0.1%
- Biomass weight reduction (A122T homozygous, higher dose (6x)): 25%
- Height versus untreated controls (A205V homozygous lines and hybrid, 0.5x or 1x): did not differ from the untreated controls
- Phytotoxicity Index (scale 0-9) [1]: 0
- biomass accumulation (dry) [1]: 95.0 % of untreated
- Phytotoxicity Index (scale 0-9) (H1 (A205V hybrid), 1x=80 g ai/ha): 0
- Phytotoxicity Index (scale 0-9) (H1 (A205V hybrid), 2x=160 g ai/ha): 1.8
- Phytotoxicity Index (scale 0-9) (H1 (A205V hybrid), 3x=240 g ai/ha): 6.4
- Phytotoxicity Index (scale 0-9) (H1 (A205V hybrid), 4x=320 g ai/ha): 8.0
- Phytotoxicity Index (scale 0-9) (H1 (A205V hybrid), 5x=400 g ai/ha): 8.9
- Phytotoxicity Index (scale 0-9) (H1 (A205V hybrid), 6x=480 g ai/ha): 9.0
- Phytotoxicity Index (scale 0-9) [2]: 0.5
- biomass accumulation (dry) [2]: 100 % of untreated
- Phytotoxicity Index (scale 0-9) (H2 (A122T hybrid), 1x=80 g ai/ha): 0.5
- Phytotoxicity Index (scale 0-9) (H2 (A122T hybrid), 2x=160 g ai/ha): 0.5
- Phytotoxicity Index (scale 0-9) (H2 (A122T hybrid), 3x=240 g ai/ha): 0.5
- Phytotoxicity Index (scale 0-9) (H2 (A122T hybrid), 4x=320 g ai/ha): 0.5
- Phytotoxicity Index (scale 0-9) [3]: 0.5
- plant height [3]: 87.0 % of untreated
- Phytotoxicity Index (scale 0-9) (H2 (A122T hybrid), 6x=480 g ai/ha): 0.5
- Phytotoxicity Index (scale 0-9) (H3 (A122T/A205V hybrid), 0.5x=40 g ai/ha): 0.5
- Phytotoxicity Index (scale 0-9) [4]: 0.5
- biomass accumulation (dry) [4]: 100.0 % of untreated
- plant height [4]: 97.0 % of untreated
- Phytotoxicity Index (scale 0-9) (H3 (A122T/A205V hybrid), 2x=160 g ai/ha): 0.5
- Phytotoxicity Index (scale 0-9) (H3 (A122T/A205V hybrid), 3x=240 g ai/ha): 0.5
- Phytotoxicity Index (scale 0-9) [5]: 0.5
- plant height [5]: 92.0 % of untreated
- Phytotoxicity Index (scale 0-9) (H3 (A122T/A205V hybrid), 5x=400 g ai/ha): 0.6
- Phytotoxicity Index (scale 0-9) [6]: 1.0
- plant height [6]: 58.0 % of untreated
- Phytotoxicity Index (scale 0-9) [7]: 0.0
- plant height [7]: 100.0 % of untreated
- Phytotoxicity Index (scale 0-9) (H4 (A122T/A205V hybrid), 1x=80 g ai/ha): 0.0
- Phytotoxicity Index (scale 0-9) [8]: 0.0
- plant height [8]: 100.0 % of untreated
- Phytotoxicity Index (scale 0-9) [9]: 0.0
- plant height [9]: 100.0 % of untreated
- Phytotoxicity Index (scale 0-9) (H4 (A122T/A205V hybrid), 4x=320 g ai/ha): 0.0
